Source: patent US20110178104A1, “Anti-Heparin Compounds” (POLYMEDIX INC., priority 2010, published 2011)

Legend:
Unfractionated heparin = test: aPTT clotting assay, UFH 0.4 U/mL in plasma (Example 10); type: biochemical; settings: unfractionated heparin 0.4 U/mL in plasma; aPTT clotting
Procedure: aPTT clotting Assay: Unfractionated heparin was mixed with plasma at a final concentration of 0.4 U/mL (or concentration which increases aPTT time to between 120 and 300 seconds). […] The ACL Elite Hemostasis analyzer (Beckman Coulter™) was used to add aPTT reagent (HemosIL SynthASil) to supplemented plasma. Clotting was initiated by addition of CaCl2 and time to clot was recorded.

fondaparinux = test: FXa amidolytic assay (Example 10), fondaparinux; settings: read-out: Fondap FXa EC50; fondaparinux 0.02 μg/mL; human antithrombin, bovine Factor Xa
enoxaparin = test: FXa amidolytic assay (Example 10), enoxaparin; settings: read-out: Enox FXa EC50; enoxaparin 0.1 ug/ml; human antithrombin, bovine Factor Xa
tinzaparin = test: FXa amidolytic assay (Example 10), tinzaparin; settings: read-out: Tinzap FXa EC50; tinzaparin 0.1 ug/ml; human antithrombin, bovine Factor Xa

EC50 (Unfractionated heparin)	EC50 (fondaparinux)	EC50 (enoxaparin)	EC50 (tinzaparin)	Compound
1.55 µM	10.8 µM	0.581 µM	0.285 µM	COc1ccc(NC(=O)[C@H](CCCCN)NC(=O)c2cc(NC(=O)[C@@H](N)CCCCN)ccc2OC)cc1C(=O)N[C@@H](CCCCN)C(=O)Nc1ccc(OC)c(C(=O)N[C@@H](CCCCN)C(=O)Nc2ccc(OC)c(C(=O)N[C@H](C)C(=O)O)c2)c1 [Compound 277]
2.96 µM	1.16 µM	0.326 µM	0.25 µM	COc1ccc(NC(=O)[C@H](CCC(=O)O)NC(=O)c2cc(NC(=O)[C@H](CCCNC(=N)N)NC(=O)c3cc(NC(=O)[C@H](CCCNC(=N)N)NC(=O)c4cc(NC(=O)[C@@H](N)CCCNC(=N)N)ccc4OC)ccc3OC)ccc2OC)cc1C(N)=O [Compound 323]
3.15 µM	> 10 µM	1.18 µM	0.296 µM	COc1cc(OC)c(C(=O)N[C@H]2CC[C@@H](NC(=O)c3cc(C(=O)N4CCC(CN)CC4)c(OCCCCCN)cc3OCCCCCN)CC2)cc1C(=O)N[C@H]1CC[C@@H](NC(=O)c2cc(C(=O)N3CCC(CN)CC3)c(OCCCCCN)cc2OCCCCCN)CC1 [Compound 423]
> 10 µM	2.09 µM	0.633 µM	0.401 µM	COc1ccc(NC(=O)[C@H](CCCCN)NC(=O)c2cc(NC(=O)[C@H](CCCCN)NC(=O)c3cc(NC(=O)[C@H](CCCCN)NC(=O)c4cc(N)cc(C(F)(F)F)c4)ccc3OC)ccc2OC)cc1C(N)=O [Compound 240]
> 10 µM	> 10 µM	> 5 µM	> 5 µM	COc1ccc(NC(=O)[C@H](CCCCN)NC(=O)c2cc(NC(=O)[C@H](CCCCN)NC(=O)c3cc(NC(=O)[C@H](CCCCN)NC(=O)c4cc(NC(=O)[C@@H](N)CCCCN)ccc4OC)ccc3OC)ccc2SC)cc1C(N)=O [Compound 252]
1.59 µM	3.46 µM	0.376 µM	0.268 µM	COc1ccc(NC(=O)[C@H](CCCCN)NC(=O)c2cc(NC(=O)[C@H](CCCCN)NC(=O)c3cc(NC(=O)[C@H](CCCCN)NC(=O)c4cc(NC(=O)[C@H](C)N)ccc4OC)ccc3OC)ccc2OC)cc1C(N)=O [Compound 233]
> 10 µM	> 10 µM	> 5 µM	> 5 µM	COc1cc(OC)c(C(=O)NCC2CCN(C(=O)c3cc(C(=O)N4CCC(CNC(=O)c5cc(C(=O)NCCN)c(OC)cc5OC)CC4)c(OC)cc3OC)CC2)cc1C(=O)NCCN [Compound 395]
1.46 µM	4.71 µM	0.229 µM	0.113 µM	COc1ccc(NC(=O)[C@H](CCCCN)NC(=O)c2cc(NC(=O)[C@H](CCCCN)NC(=O)c3cc(NC(=O)[C@H](CCCCN)NC(=O)c4ccc(NC(=O)[C@@H](N)CCCCN)cc4OC)ccc3OC)ccc2OC)cc1C(N)=O [Compound 244]
1.99 µM	0.549 µM	0.289 µM	0.234 µM	COc1ccc(NC(=O)[C@H](CCCNC(=N)N)NC(=O)c2cc(NC(=O)[C@H](CCCNC(=N)N)NC(=O)c3cc(NC(=O)[C@H](CCCNC(=N)N)NC(=O)c4cc(NC(=O)[C@@H](N)CCC(=O)O)ccc4OC)ccc3OC)ccc2OC)cc1C(N)=O [Compound 326]
> 10 µM	> 10 µM	> 5 µM	> 5 µM	COc1ccc(NC(=O)[C@H](CCCCN)NC(=O)c2cc(C(=O)N[C@@H](CCCCN)C(=O)Nc3ccc(OC)c(C(=O)N[C@@H](CCCCN)C(N)=O)c3)c(OC)cc2OC)cc1C(=O)N[C@@H](CCCCN)C(N)=O [Compound 427]
> 10 µM	> 10 µM	> 5 µM	> 5 µM	COc1cc(OC)c(C(=O)N[C@H]2CC[C@H](NC(=O)c3cncc(C(=O)O)c3)CC2)cc1C(=O)NCCN [Compound 401]
2.35 µM	0.167 µM	0.153 µM	0.147 µM	COc1ccc(NC(=O)[C@H](CCCCN)NC(=O)c2cc(NC(=O)[C@H](CCCCN)NC(=O)c3cc(NC(=O)[C@H](CCCCN)NC(=O)c4cc(NC(=O)[C@H](CCCCN)NC(=O)c5cccc(C(=O)O)c5)ccc4OC)ccc3OC)ccc2OC)cc1C(N)=O [Compound 342]
